Results taken from EP1350507A1, “Delivery of a substance to a pre-determinated site” (Applied NanoSystems B.V., priority 2002, dated 2003).
Each block holds one molecule with its values, some of them ahead of it.

Tests used:
COS-7 cells [1] = test: Transfection of COS-7 cells with β-galactosidase reporter plasmid; assay type: cell-based
Procedure: Transfections are carried out following standard protocols as is described in EP 0755924. In numerous publications variations of transfection protocols are given. A person acquainted with the field of non-viral transfections, in particular transfections using cationic amphiphiles will be able to use the cationic amphiphiles of the invention in transfection methods known per se. In standard experiments COS-7 cells are transfected with plasmid DNA containing the β-galactosidase reporter gene. Upon successful transfection the cell produces the enzyme β-galactosidase whose activity can be easily measured. […] Toxicity of the cationic amphiphiles towards the cells can be monitored qualitatively and quantitatively by visual inspection of the cells and by a protein determination.
[…] The plasmid concentration was determined by measuring the absoption at 260 nm using the relation 1.0 OD = 50 µg/ml. […]
The complex of cationic amphiphile/DOPE (1:1) with pCMV β-gal was prepared at the charge ratio 2.5:1 (15 nmol lipid and 1 µg DNA), in 100µl 10 mM HEPES (pH=7.4, 150 mM NaCl). […] Control wells underwent identical steps except that no cationic amphiphile was added. β-galactosidase activity was observed whereas in control wells no activity was detected. […]

COS-7 cells [2] = test: Toxicity of cationic amphiphile towards the cells (protein determination); assay type: cell-based; details: protein determination compared with control wells
Procedure: Transfections are carried out following standard protocols as is described in EP 0755924. In numerous publications variations of transfection protocols are given. A person acquainted with the field of non-viral transfections, in particular transfections using cationic amphiphiles will be able to use the cationic amphiphiles of the invention in transfection methods known per se. In standard experiments COS-7 cells are transfected with plasmid DNA containing the β-galactosidase reporter gene. Upon successful transfection the cell produces the enzyme β-galactosidase whose activity can be easily measured. Other plasmids comprising alternative reporter genes such as the gene encoding Green Fluoerscent Protein or Chloroamphenicol Acetyl Transferase are suited as well. For analyzing stable transfection a plasmid containing the neomycin resistance gene can be used. Toxicity of the cationic amphiphiles towards the cells can be monitored qualitatively and quantitatively by visual inspection of the cells and by a protein determination.
The complex of cationic amphiphile/DOPE (1:1) with pCMV β-gal was prepared at the charge ratio 2.5:1 (15 nmol lipid and 1 µg DNA), in 100µl 10 mM HEPES (pH=7.4, 150 mM NaCl). […] Control wells underwent identical steps except that no cationic amphiphile was added. β-galactosidase activity was observed whereas in control wells no activity was detected.

[3] = Solvent scope of N,N'-dialkylaldaramides or N,N'-dialkylpentaramides (gelation behaviour in solvents); assay type: physicochemical
Excerpt: It will be understood that the use of the present gelling agents or thickeners to prepare a gel or to thicken a composition is also encompassed by the invention. As is well-known, gelling behavior of compounds or compositions is highly unpredictable. […] Preferably, the gelling phenomenon is thermoreversible.
(§1) Preferred examples include aromatic and non-aromatic hydrocarbons, alcohols, ethers, esters, aldehydes, alkanoic acids, epoxides, amines, halogenated hydrocarbons, silicon oils, vegetable oils, phosphoric esters, sulfoxides and mixtures thereof. The compound also produces a gel in hydrophilic solvents such as water. The choice of composition for gelling can be tuned to the invented use. For instance in situations where clinical application of a vehicle of the invention is intended biocompatibility of the composition is preferred. In order to obtain a gel, the gelling agent or thickener is preferably mixed with the composition to be transformed to a gel in an amount of between 0.01 and 50 wt.%, based on the weight of the composition. In a preferred embodiment the mixture of the gelling agent or thickener and the composition is heated to allow for an even better gel formation or thickening. Typically, the heating will involve raising the temperature of the mixture to about 30 - 175 °C until a clear solution is obtained. In an alternative embodiment, the gelling agent is first dissolved in a polar or apolar solvent and then added to or sprayed into a composition or solvent to be converted into a gel.

[4] = Concentration range of N,N'-dialkylaldaramides or N,N'-dialkylpentaramides in solvents; assay type: physicochemical
Excerpt: as §1

[5] = Gelation experiment with dithienylcyclopentene derivatives (heat, cool, no gravitational flow; UV-vis/CD); assay type: physicochemical; details: for Solvents in which gelation did occur: cooling to room temperature, 1 ml solvent
Procedure: In a typical gelation experiment, a carefully weighed amount of the dithienylcyclopentene derivative under investigation and 1 ml of the solvent are placed in a test tube, which is sealed and then heated until the compound is dissolved. The solution is allowed to cool to room temperature. […] The gelation process could be followed by UV-vis and CD spectroscopy as depicted in Figure 23. […] Increasing the concentration to 1.8 mM causes gelation of the solvent, which is accompanied by a change of the UV-visible spectrum, together with the appearance of a strong CD signal at 323 nm (Figure 22 A and B). Similar changes in the UV-vis and CD spectrum are observed upon gelation of the 1.8 mM solution of D in toluene by cooling to a temperature below the sol-gel phase transition(from here on referred to as gel(o). From a plot of the increase of the CD signal versus the temperature the sol-gel phase transition temperature of gel(o) was determined to be 29°C for a 1.8 mM solution of D in toluene.

[6] = Photoswitching of a gel of compound D; assay type: physicochemical
Procedure: In a typical photoswitching experiment a solution (1.8 mM) of Compound D in toluene was prepared by cooling from 70°C to the desired temperature (typically between 30°C and 60°C, i.e. above the gel-sol phase transition temperature of the open form of D) in a cuvette of 1 mm path length. This solution was then irradiated at λ1 = 313 nm to convert the ring-open form of Compound D to the ring-closed form. By using a 150 W Xe lamp and a 313 nm bandpass filter, the photostationary state (PSS) was reached typically within 10 minutes, which consist of 60mol% of the closed form and 40mol% of the open form.
Gels of the closed form of D can also be dissolved by converting the closed form to the open form by irradiation with light of wavelength □□. Irradiation of gel(c,I) or gel(c,II) with □□ > 450 nm at while keeping the temperature between 30°C and 60°C causes dissolution of the gel to give a solution of the open form D, of which the UV-vis and CD spectra are identical to that of the starting solution. This process of gelation-dissolution by alternating irradiations with UV (313 nm) and Vis (> 450 nm) light can be repeated many times, showing that the photo-induced gelation process is fully reversible. In another experiment a solution (1.8 mM) of Compound D in toluene was prepared by cooling from 70°C to a temperature below the gel-sol phase transition temperature of the open form of (typically between 20°C and 29°C) in a cuvette of 1 mm path length.

[7] = 1.8 mM in toluene, irradiation at 313 nm

Molecule: 1-(9'-cis-octadecenyl)-4-(10"-cis-nonadecenyl) pyridinium Chloride
β-galactosidase activity (COS-7 cells [1]; cationic amphiphile/DOPE (1:1) with pCMV β-gal, charge ratio 2.5:1, assay 48 later): observed
β-galactosidase activity compared with Lipofectin™ (COS-7 cells [1]; cationic amphiphile/DOPE (1:1), charge ratio 2.5:1): substantially higher
toxicity towards the cells (COS-7 cells [2]): no toxicity

Solvent scope ([3]; Cyclohexane): g. ,c*.
Molecule: CC(C)=CCCC(C)CCNC(=O)[C@@H](O)[C@@H](O)[C@H](O)[C@@H](O)C(=O)NCCC(C)CCC=C(C)C (stereo partly shown) [CitGluCit, dicitronellyl glucaramide]

Solvent scope ([3]; 1,2-Dichloro-ethane): n.s.
Solvent scope ([3]; Cyclohexane): n.s.
Solvent scope ([3]; Ethanol): n.s.
Solvent scope ([3]; Toluene): n.s.
Solvent scope ([3]; n-Butylacetate): n.s.
Solvent scope ([3]; water): n.s.
Molecule: CCCCCCCCCCCCNC(=O)[C@@H](O)[C@H](O)[C@H](O)[C@@H](O)C(=O)NCCCCCCCCCCCC [Compound 12Gal12, didodecyl galactaramide]

Concentration range ([4]; 1,2- Dichloroethane): <5.0%.
Concentration range ([4]; Cyclohexane): <2.5%.
Concentration range ([4]; Dow Corning 702): <2.5%.
Concentration range ([4]; Methyllaurate): <2.5%.
Concentration range ([4]; Toluene): <2.5%.
Concentration range ([4]; n-Butylacetate): <2.5%.
Solvent scope ([3]; 1,2-Dichloro-ethane): g/c.
Solvent scope ([3]; Dimethylsulfoxide): g/c.
Solvent scope ([3]; Ethanol): g/c.
Solvent scope ([3]; water): n.s.
Molecule: O=C(NC1CCCCC1)[C@@H](O)[C@@H](O)[C@H](O)[C@@H](O)C(=O)NC1CCCCC1 [Compound C6GluC6, dicyclohexyl glucaramide]

Concentration range ([4]; 1,2- Dichloroethane): <50%.
Concentration range ([4]; Cyclohexane): <5%.
Concentration range ([4]; Dow Corning 702): <50%
Concentration range ([4]; Methyllaurate): <5%.
Concentration range ([4]; Toluene): <50%.
Concentration range ([4]; n-Butylacetate): <50%.
Solvent scope ([3]; Dimethylsulfoxide): g/c.
Solvent scope ([3]; Ethanol): g/c.
Solvent scope ([3]; water): n.s.
Molecule: O=C(NC1CCCCCCCCCCC1)[C@@H](O)[C@@H](O)[C@H](O)[C@@H](O)C(=O)NC1CCCCCCCCCCC1 [Compound C12GluC12, dicyclododecyl glucaramide]

Molecule: Cc1sc(C(=O)Nc2ccccc2)cc1C1=C(c2cc(C(=O)Nc3ccccc3)sc2C)CCC1 [Compound C, 1,2-Bis(5'-(anilinocarbonyl)-2'-methyl-thien-3'-yl) cyclopentene]
Solvents in which gelation did occur [5]: 1-phenyloctane, toluene, n-butylether, benzene, tetralin

sol-gel phase transition temperature of gel(o) ([5]; 1.8 mM solution in toluene, open form, from CD signal versus temperature): 29 °C
Concentration that causes gelation of the solvent ([5]; Toluene): 1800 µM
sol-gel phase transition temperature of gel(c,I) ([6]; 1.8 mM in toluene after irradiation at 313 nm): 62 °C
Time without gel formation, solutions kept in the dark ([6]; 1.8 mM in toluene, between 20°C and 29°C, not irradiated): > 1 h
closed form in the photostationary state (PSS) [6, 7]: 60 mol%
open form in the photostationary state (PSS) [6, 7]: 40 mol%
Time to reach the photostationary state (PSS) ([6]; 1.8 mM in toluene, irradiation at 313 nm, 150 W Xe lamp): ≤ 10 min
Increase of thermal stability compared to gel(o) ([6]; gel(c,I), toluene): more than 30 °C
Molecule: Cc1sc(C(=O)N[C@H](C)c2ccccc2)cc1C1=C(c2cc(C(=O)N[C@H](C)c3ccccc3)sc2C)CCC1 [Compound D, 1,2-Bis(2'-methyl-5'-{[((R)-1-phenylethyl)amino]carbonyl}thien-3'-yl)cyclopentene]
Solvents in which gelation did occur [5]: cyclohexane, 1-phenyloctane, toluene, n-butyl ether, benzene, tetralin

Molecule: Cc1sc(C(=O)N[C@H](C)C2CCCCC2)cc1C1=C(c2cc(C(=O)N[C@H](C)C3CCCCC3)sc2C)CCC1 [Compound E, 1,2-Bis(2'-methyl-5'-{[((R)-1-cyclohexylethyl)amino]carbonyl}thien-3'-yl)cyclopentene]
Solvents in which gelation did occur [5]: hexadecane, cyclohexane, 1-phenyloctane, toluene, n-butylether, benzene, tetralin, 1,4-dioxane, and n-butyl acetate
